Assay: Excipient compatibility: stability of binary mixture of API plus excipient, purity by HPLC
Assay type: physicochemical
Procedure: A comparison of the stability of the API of the current invention was made, using excipients well-known in the art. […] Compound purity was determined by HPLC. The mixture of the API and the calcium phosphate was allowed to stand under the specified conditions for the stated times. Results are given as percent purity of the API at the given time point. […] Again, the mixture of the API and the microcrystalline cellulose was allowed to stand under the specified conditions for the stated times. Results are given as percent purity of the API at the given time point.

O=C(CNC1CCNC1)N1CCCC1B(O)O (stereo not shown) [API, pyrrolidin-3-yl-glycyl-boro-proline]
% API (percent purity of the API) (binary mixture with dibasic calcium phosphate, 2 weeks/loose cap): 77.0% | % API (percent purity of the API) (binary mixture with dibasic calcium phosphate, 2 weeks/tight cap): 77.2% | % API (percent purity of the API) (binary mixture with dibasic calcium phosphate, 4 weeks/tight cap): 71.7% | drop in API purity (binary mixture with dibasic calcium phosphate, within two weeks, regardless of exposure to atmosphere): over 10% | % API (percent purity of the API) (binary mixture with microcrystalline cellulose, 2 weeks/loose cap): 82.1% | % API (percent purity of the API) (binary mixture with microcrystalline cellulose, 4 weeks/tight cap): 90.2% | storage stability of the API in the presence of calcium phosphate (presence of calcium phosphate): massive decomposition
